The numbers were not newly measured in patent US6383513B1, “Compositions comprising cannabinoids” (West Pharmaceutical Services Drug Delivery & Clinical …, priority 1997, dated 2002), which cites them from elsewhere.

Test in data set [1]: not given
This is another data set of the same source.

As to `CCCCCc1cc(O)c2c(c1)OC(C)(C)[C@@H]1CCC(C)=C[C@@H]21` [Dronabinol, delta-9-tetrahydrocannabinol], the “appetite stimulant effect may continue” value (after administration) is not below 24 h. Besides, under “after oral administration”, the “duration of action for psychoactive effects” value was 4 to 6 h, the onset of action was 0.5 to 1 h and the peak effect is 2 to 4 h. Also, in data set [1] (after single oral doses), the absorbed is 90-95%. For the same compound, in data set [1] (oral, first pass hepatic metabolism and high lipid solubility), the “administered dose that reaches the systemic circulation” value is on record as 10-20%.
